Nine compounds from PubChem BioAssay (NCI) can be followed below.

“And” between values parts separate entries of the source, which are not always exact repeats. Equal entries are not always repeated.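 Growth conditions: 96-well plates. Treatment: test compound, 48 hours, 5 concentrations. Analysis: linear interpolation between bracketing concentrations; unreached endpoints set to highest concentration. At the GI50, growth is halved. At the TGI there is no net growth.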

Test systems include DU-145 prostate; HCT-116 colon; HCT-15 colon; IGROV1 ovarian; K-562 leukemia; NCI-H522 lung; RPMI-8226 leukemia; SF-295 CNS; TK-10 renal; UACC-257 melanoma.
Common to all, as to assay: NCI-60 cell line screen, 48 h

Turning to `CSc1ccc(C(=O)C(=O)c2ccc(SC)s2)s1`, the TGI with DU-145 prostate, with HCT-116 colon, in the test on HCT-15 colon, with IGROV1 ovarian, with K-562 leukemia and in the test on NCI-H522 lung was more than 10 µM throughout. Further, the TGI in the test with RPMI-8226 leukemia, in the test with SF-295 CNS, in the test on TK-10 renal and with UACC-257 melanoma was more than 10 µM throughout.
On to `CC(=O)N(Cc1ccccc1)c1ccccc1I(=O)=O`, for which the GI50 is 29.6 µM in the test with DU-145 prostate; 19.8 µM in the test with HCT-15 colon; 15.5 µM in the test with IGROV1 ovarian; 14 µM with K-562 leukemia; 22.4 µM in the test with NCI-H522 lung; 15.7 µM in the test on RPMI-8226 leukemia. For the same compound, the GI50 in the test with SF-295 CNS is 48.3 µM; with TK-10 renal it was 45.2 µM; in the test with UACC-257 melanoma, more than 100 µM. The TGI in the test with DU-145 prostate was more than 100 µM; in the test on HCT-15 colon, 40.5 µM; in the test on IGROV1 ovarian, more than 100 µM; with K-562 leukemia, 29.5 µM; with NCI-H522 lung, more than 100 µM; in the test with RPMI-8226 leukemia, 32.7 µM. Moreover, the TGI in the test with SF-295 CNS, in the test with TK-10 renal and in the test on UACC-257 melanoma was more than 100 µM throughout.
For the compound `Cc1cc(Cl)ccc1Nc1nc(C(F)(F)F)ccc1C(=O)N1CCN(c2cccc(Cl)c2)CC1`, the GI50 in the test with DU-145 prostate was more than 100 µM; with HCT-116 colon it was 37.3 µM; in the test on HCT-15 colon, more than 100 µM; with IGROV1 ovarian, 1.78 µM; in the test with K-562 leukemia, 19.7 µM; in the test on NCI-H522 lung, more than 100 µM. The GI50 was 37.2 µM with RPMI-8226 leukemia, 88.9 µM in the test with SF-295 CNS, more than 100 µM with TK-10 renal and more than 100 µM with UACC-257 melanoma. Further, the TGI in the test with DU-145 prostate, in the test with HCT-116 colon, in the test on HCT-15 colon, in the test with IGROV1 ovarian, in the test on K-562 leukemia and with NCI-H522 lung was more than 100 µM throughout. In addition, the TGI in the test on RPMI-8226 leukemia, in the test with SF-295 CNS, with TK-10 renal and in the test on UACC-257 melanoma was more than 100 µM in each case.
Turning to `C#CCN(Cc1ccc2nc(N)[nH]c(=O)c2c1)c1ccc(C(=O)NC(CCC(=O)O)C(=O)O)cc1` (stereo not drawn), the TGI in the test on DU-145 prostate, with HCT-116 colon, with HCT-15 colon, with IGROV1 ovarian, in the test with RPMI-8226 leukemia and with SF-295 CNS was more than 100 µM each time. Also, the TGI in the test with TK-10 renal and with UACC-257 melanoma was more than 100 µM each time.
As for `O=c1[nH]c2ccccc2n1-c1n[nH]c2ccccc12`, the GI50 in the test with DU-145 prostate was 34 µM; with HCT-116 colon, 24.6 µM; with HCT-15 colon, 31 µM; in the test on IGROV1 ovarian it was 8.29 µM; with K-562 leukemia it was 31.3 µM; with NCI-H522 lung, 19.7 µM. The GI50 with RPMI-8226 leukemia was 17.6 µM; in the test with SF-295 CNS, 25.4 µM; in the test on TK-10 renal, 40.7 µM; in the test on UACC-257 melanoma it was 42.1 µM. For the same compound, the TGI is more than 100 µM with DU-145 prostate; 67.5 µM in the test on HCT-116 colon; more than 100 µM in the test on HCT-15 colon; more than 100 µM in the test with IGROV1 ovarian; more than 100 µM with K-562 leukemia; 48.7 µM in the test on NCI-H522 lung. In addition, the TGI was 64.6 µM in the test on RPMI-8226 leukemia, 59.8 µM in the test with SF-295 CNS, more than 100 µM in the test on TK-10 renal and more than 100 µM with UACC-257 melanoma.
As to `COC1(OC)c2no[n+]([O-])c2C(OC)(OC)c2c1no[n+]2[O-]`, the TGI was more than 100 µM in the test with DU-145 prostate; 24.6 µM with HCT-116 colon; 67.4 µM in the test with HCT-15 colon; 51 µM with IGROV1 ovarian; more than 100 µM in the test on K-562 leukemia; 47.5 µM in the test on NCI-H522 lung. Further, the TGI with RPMI-8226 leukemia amounted to 87.8 µM; with SF-295 CNS, 80 µM; in the test on TK-10 renal, 31.5 µM; in the test with UACC-257 melanoma, 25 µM.
Regarding `CC(=O)Oc1ccc(/C=N/NC(N)=S)nc1`, the GI50 with DU-145 prostate is 2.36 µM; in the test on HCT-116 colon it was 4.48 µM; in the test with HCT-15 colon, 22.5 µM; in the test on IGROV1 ovarian it was 4.5 µM; with K-562 leukemia, 6 µM; in the test with NCI-H522 lung, 2.61 µM. The GI50 in the test on RPMI-8226 leukemia was 9.43 µM; in the test with SF-295 CNS it was 6.42 µM; in the test with TK-10 renal it was 47.8 µM; with UACC-257 melanoma, 14.2 µM. Further, the TGI is 8.38 µM in the test with DU-145 prostate; more than 100 µM with HCT-116 colon; more than 100 µM with HCT-15 colon; 26.8 µM in the test on IGROV1 ovarian; more than 100 µM in the test on K-562 leukemia; more than 100 µM with NCI-H522 lung. Also, the TGI in the test on RPMI-8226 leukemia was more than 100 µM; in the test on SF-295 CNS, 42.6 µM; in the test with TK-10 renal it was more than 100 µM; in the test with UACC-257 melanoma, 57.7 µM.
As for `N#CC1C=Cc2ccccc2N1C(=O)Oc1ccccc1` (stereo not drawn), the TGI with DU-145 prostate was 93.8 µM; in the test with HCT-116 colon, more than 100 µM; in the test on HCT-15 colon, more than 100 µM; with IGROV1 ovarian it was more than 100 µM; in the test on K-562 leukemia, more than 100 µM; in the test on NCI-H522 lung, more than 100 µM. For the same compound, the TGI with RPMI-8226 leukemia is 61.3 µM; in the test on TK-10 renal, more than 100 µM; with UACC-257 melanoma, more than 100 µM.
`Nc1ccc(S(=O)(=O)Nc2cnc3c(Cl)cccc3n2)cc1`: the TGI with DU-145 prostate is more than 750 µM; with HCT-116 colon it was 609 µM; in the test on HCT-15 colon, more than 562 µM; in the test on IGROV1 ovarian, more than 275 µM; in the test on K-562 leukemia, more than 750 µM; with NCI-H522 lung, 75 µM and 259 µM. Also, the TGI with RPMI-8226 leukemia was more than 705 µM; with SF-295 CNS, 737 µM; in the test with TK-10 renal it was 589 µM; with UACC-257 melanoma, more than 750 µM. Moreover, the GI50 was 14.7 µM with HCT-116 colon; 43.5 µM in the test with HCT-15 colon; 1.16 µM in the test with IGROV1 ovarian; 36.4 µM with K-562 leukemia; 15.2 µM in the test on NCI-H522 lung; more than 95.1 µM in the test with RPMI-8226 leukemia. Further, the GI50 with TK-10 renal is more than 84.7 µM; with UACC-257 melanoma, more than 89.3 µM.
